Experimental data from US7153884B2, “C-2′ methylated derivatives of paclitaxel for use as antitumour agents” (Indena S.p.A., priority 2001, dated 2006).

How the values were obtained:
Type in all cases: cell-based
[1] = test system: A2780wt cell line; test: Cell viability by ATP dosage (ATPlite), 72 h continuous exposure, A2780wt; settings: A2780wt cells, continuous exposure 72 hours, viable cells by ATP dosage
Procedure: (§1) Pharmacological experimentation was carried out on the compounds of the invention at a 0.1% concentration in dimethylsulfoxide. A2780wt, A2780cis, A2780adr and A2780tax cell lines were used. Cells were plated on 96 well flat bottom plates (Viewplates, Packard). After 24-hours, the culture medium was replaced and, after washing, media containing the tested compounds were added. A dose-response logarithmic curve was established in quadruplicate for each plate, starting from […]. Each assay was effected in duplicate three times. After 72 hour-culture in the presence of the tested compounds, the cells were collected and the number of viable cells was evaluated by ATP dosage, using the ATPlite kit (Packard, Meridien, Mo., USA) and the Topcount (Packard) automated luminometer. For each drug/cell line, the dose-response curve was plotted and the IC50 values were calculated from the concentration-effect curve obtained in three tests with the sigmoid-Emax model using non-linear regression, weighted by the reciprocal of the square of the predicted effect.

[2] = test system: A2780adr cell line; test: Cell viability by ATP dosage (ATPlite), 72 h continuous exposure, A2780adr; settings: A2780adr cells, continuous exposure 72 hours, viable cells by ATP dosage
Procedure: as §1

[3] = test system: A2780cis cell line; test: Cell viability by ATP dosage (ATPlite), 72 h continuous exposure, A2780cis; settings: A2780cis cells, continuous exposure 72 hours, viable cells by ATP dosage
Procedure: as §1

[4] = test system: A2780tax cell line; test: Cell viability by ATP dosage (ATPlite), 72 h continuous exposure, A2780tax; settings: A2780tax cells, continuous exposure 72 hours, viable cells by ATP dosage
Procedure: as §1

| Compound | IC50 [1] [nM] | IC50 [2] [nM] | IC50 [3] [nM] | IC50 [4] [nM] |
| --- | --- | --- | --- | --- |
| CC(=O)O[C@H]1C(=O)[C@@]2(C)[C@H]([C@H](OC(=O)c3ccccc3)[C@]3(O)C[C@H](OC(=O)[C@](C)(O)[C@@H](NC(=O)OC(C)(C)C)c4ccco4)C(C)=C1C3(C)C)[C@]1(OC(C)=O)CO[C@@H]1C[C@@H]2O [Es. 3, (2′R,3′R)-13-[N-Boc-2-methyl-3-(2-furanyl)-isoserinoyl]-baccatin III] | 2.9 ± 0.1 | 41.3 ± 7.4 | 3.3 ± 0.2 | 312 ± 61 |
| CC(=O)O[C@H]1C(=O)[C@@]2(C)[C@H]([C@H](OC(=O)c3ccccc3)[C@]34OC(=O)O[C@H]3[C@H](OC(=O)[C@](C)(O)[C@@H](NC(=O)OC(C)(C)C)c3ccccc3)C(C)=C1C4(C)C)[C@]1(OC(C)=O)CO[C@@H]1C[C@@H]2O [Es. 2, (2′R,3′S)-13-(N-Boc-2-methyl-3-phenylisoserinoyl)-14β-hydroxybaccatin III 1,14-carbonate] | 2.53 ± 1.47 | 52.9 ± 16.2 | 1.7 ± 0.4 | 299 ± 77 |

More lines, now with the values ahead:

| IC50 [1] [nM] | IC50 [2] [nM] | IC50 [3] [nM] | IC50 [4] [nM] | Compound |
| --- | --- | --- | --- | --- |
| 3.1 ± 0.2 | 61.4 ± 3.9 | 2.9 ± 0.1 | 420 ± 93 | CC(=O)OC1C(=O)C2(C)C(O)CC3OCC3(OC(C)=O)C2C(OC(=O)c2ccccc2)C2(O)CC(OC(=O)C(C)(O)C(NC(=O)c3ccccc3)c3ccco3)C(C)=C1C2(C)C (stereo not drawn) [Es. 1, (2′R,3′R)-3′-dephenyl-3′-(2-furyl)-2′-methyl-paclitaxel] |
| 3.7 ± 0.4 | 93.2 ± 20.4 | 2.9 ± 0.2 | 160 ± 32 | (2′R,3′R)-13-[N-Boc-2-methyl-3-(2-thienyl)isoserinoyl]-14β-hydroxybaccatin III 1,14-carbonate [Es. 6] |
| 5.9 ± 0.7 | 27.1 ± 10.1 | 2.5 ± 0.3 | 30.9 ± 3.7 | CC(=O)O[C@H]1C(=O)[C@@]2(C)[C@H]([C@H](OC(=O)c3ccccc3)[C@]34OC(=O)O[C@H]3[C@H](OC(=O)[C@](C)(O)[C@@H](NC(=O)OC(C)(C)C)c3ccco3)C(C)=C1C4(C)C)[C@]1(OC(C)=O)CO[C@@H]1C[C@@H]2O [Es. 4, (2′R,3′R)-13-[N-Boc-2-methyl-3-(2-furanyl)isoserinoyl]-14β-hydroxybaccatin III 1,14-carbonate] |
| 4.64 ± 2.58 | 79.3 ± 19.9 | 2.8 ± 0.6 | 285 ± 60 | CC(=O)O[C@H]1C(=O)[C@@]2(C)[C@H]([C@H](OC(=O)c3ccccc3)[C@]34OC(=O)O[C@H]3[C@H](OC(=O)[C@](C)(O)[C@@H](NC(=O)OC(C)(C)C)C(F)(F)F)C(C)=C1C4(C)C)[C@]1(OC(C)=O)CO[C@@H]1C[C@@H]2O [Es. 5, (2′R,3′R)-13-[N-Boc-2-methyl-3-trifluoromethylisoserinoyl]-14β-hydroxybaccatin III 1,14-carbonate] |
